Laboratory results from US10716791B2, “Inhibitors of peptidyl arginine deiminase (PAD) enzymes and uses thereof” (UNIVERSITY HEALTH NETWORK, priority 2015, dated 2020).
Where two headings read alike, the source gives them in different places. Values belong to the molecule of their own block, whether it stands above or below them.

Assays:
[1] = target: T1, PAD1 (Homo sapiens (Human), UniProt Q9ULC6); assay: Inhibition of PAD activity (Example 53), PAD1; settings: Table 5; for Ki: read-out: PAD1 Ki ± std error
T1 sequence (Q9ULC6 whole entry): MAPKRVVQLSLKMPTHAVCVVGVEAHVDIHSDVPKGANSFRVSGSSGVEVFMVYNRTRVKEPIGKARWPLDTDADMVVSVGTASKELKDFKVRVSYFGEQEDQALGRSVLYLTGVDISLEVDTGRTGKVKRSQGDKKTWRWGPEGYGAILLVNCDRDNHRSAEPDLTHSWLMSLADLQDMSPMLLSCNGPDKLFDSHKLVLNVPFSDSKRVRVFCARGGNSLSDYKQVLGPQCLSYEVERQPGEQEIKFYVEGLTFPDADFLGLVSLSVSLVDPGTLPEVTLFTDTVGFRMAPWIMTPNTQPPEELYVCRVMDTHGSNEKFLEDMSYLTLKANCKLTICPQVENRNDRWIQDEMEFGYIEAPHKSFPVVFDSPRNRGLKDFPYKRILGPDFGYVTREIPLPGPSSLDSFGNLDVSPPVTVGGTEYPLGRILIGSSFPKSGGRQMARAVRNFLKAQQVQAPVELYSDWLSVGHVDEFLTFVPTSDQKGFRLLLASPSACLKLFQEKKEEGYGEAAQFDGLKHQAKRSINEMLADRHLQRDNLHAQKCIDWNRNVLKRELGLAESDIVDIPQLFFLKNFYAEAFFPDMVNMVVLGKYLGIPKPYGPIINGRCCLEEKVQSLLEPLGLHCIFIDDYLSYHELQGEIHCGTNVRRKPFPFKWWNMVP
Description: (§1) Materials: PAD1, PAD2, PAD3 and PAD4 were purchased from commercial sources. Assay buffer: 50 mM Tris pH 7.5, 100 mM NaCl, 10 mM CaCl2, 5 mM DTT.
(§2) The inhibitor (12.5 μL of stock) was mixed with appropriate amount of substrate (BAEE) stock solution and preincubated at 37° C. for a period in the range of 0-60 min. The reaction was initiated by the addition of the enzyme. The reaction samples were incubated for a period in the range of 0-60 min. […] Samples were cooled on ice, vortexed and centrifuged. 200 μL aliquots were transferred to the 96-well plate and the absorbance was measured at 530 nm and the remaining activity was computed. The remaining activity data were plotted versus inhibitor concentration and fitted to the dose-response equation to calculate IC50.

[2] = target: PAD2 (Mus musculus (Mouse), UniProt Q08642); assay: Inhibition of PAD activity (Example 53), PAD2; settings: for remaining activity at 100 µM / remaining activity at 1000 µM: read-out: Remaining activity of PAD2
Chain of PAD2 (Q08642 whole entry): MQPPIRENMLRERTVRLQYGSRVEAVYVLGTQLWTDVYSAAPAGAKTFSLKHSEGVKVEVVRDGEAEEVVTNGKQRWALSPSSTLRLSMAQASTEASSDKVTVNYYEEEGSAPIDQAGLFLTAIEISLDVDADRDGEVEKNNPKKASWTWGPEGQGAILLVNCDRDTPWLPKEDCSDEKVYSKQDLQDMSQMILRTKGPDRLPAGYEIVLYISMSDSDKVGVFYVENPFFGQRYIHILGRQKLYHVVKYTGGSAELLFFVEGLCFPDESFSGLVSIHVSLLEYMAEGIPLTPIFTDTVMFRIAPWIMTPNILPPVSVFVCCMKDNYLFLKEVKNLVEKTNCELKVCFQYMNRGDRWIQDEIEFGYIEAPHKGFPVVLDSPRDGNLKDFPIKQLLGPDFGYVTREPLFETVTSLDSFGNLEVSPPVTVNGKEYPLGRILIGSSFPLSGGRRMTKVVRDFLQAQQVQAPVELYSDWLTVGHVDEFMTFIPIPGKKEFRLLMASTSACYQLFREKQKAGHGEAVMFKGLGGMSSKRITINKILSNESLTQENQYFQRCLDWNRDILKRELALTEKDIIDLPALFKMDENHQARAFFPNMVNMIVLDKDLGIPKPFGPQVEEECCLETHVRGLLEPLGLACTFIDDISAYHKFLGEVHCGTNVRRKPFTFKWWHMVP
Description: as §1, §2

[3] = target: T2, PAD4 (Homo sapiens (Human), UniProt Q9UM07); assay: Inhibition of PAD activity (Example 53), PAD4; settings: for Ki: read-out: PAD4 Ki ± std error; for Ki / PAD4 Ki ± std error: Table 5; for remaining activity at 100 µM / remaining activity at 1000 µM: read-out: Remaining activity of PAD4
T2 sequence (Q9UM07 whole entry): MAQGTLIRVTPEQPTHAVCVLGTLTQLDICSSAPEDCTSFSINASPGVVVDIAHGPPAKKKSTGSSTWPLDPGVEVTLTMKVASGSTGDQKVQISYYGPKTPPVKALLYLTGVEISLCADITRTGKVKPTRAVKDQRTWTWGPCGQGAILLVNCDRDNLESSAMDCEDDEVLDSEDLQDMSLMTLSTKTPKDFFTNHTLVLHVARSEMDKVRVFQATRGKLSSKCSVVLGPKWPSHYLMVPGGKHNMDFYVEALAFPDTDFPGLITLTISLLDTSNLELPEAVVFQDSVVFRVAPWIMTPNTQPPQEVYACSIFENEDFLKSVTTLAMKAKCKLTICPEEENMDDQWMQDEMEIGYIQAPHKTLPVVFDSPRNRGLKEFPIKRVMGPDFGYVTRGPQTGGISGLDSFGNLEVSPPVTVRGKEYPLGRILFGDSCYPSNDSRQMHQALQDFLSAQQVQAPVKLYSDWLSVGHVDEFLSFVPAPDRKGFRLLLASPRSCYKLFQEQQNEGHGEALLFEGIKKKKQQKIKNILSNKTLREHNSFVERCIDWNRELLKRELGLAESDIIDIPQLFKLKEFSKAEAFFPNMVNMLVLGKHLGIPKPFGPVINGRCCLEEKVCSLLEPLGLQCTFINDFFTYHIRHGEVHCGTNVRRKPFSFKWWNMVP
Description: as §1, §2

[4] = target: PAD enzymes; settings: most potent non-peptidic compounds from the literature; cited from earlier work
[5] = target: T1, PAD1; assay: Enzyme inhibition kinetics (Example 54), hPAD1; type: biochemical; settings: for Ki: Table 6
[6] = target: mPAD2 (Mus musculus (Mouse), UniProt Q08642); assay: Enzyme inhibition kinetics (Example 54), mPAD2; type: biochemical; settings: for Ki: Table 6; for Selectivity ratio of inhibition, mPAD2 (PAD4): mPAD2 versus PAD4
Chain of mPAD2 (Q08642 whole entry): as the sequence (Q08642 whole entry) above

[7] = tested on: CHO cells; assay: CHO cell toxicity assay; type: cell-based; settings: Cricetulus griseus
[8] = target: T2, PAD4; assay: Enzyme inhibition kinetics (Example 54), hPAD4; type: biochemical; settings: for Ki: Table 6
[9] = target: PADs; assay: Enzymatic assays with hPAD1, mPAD2 and hPAD4, stated for PADs overall; type: biochemical; settings: summary of Table 6; read-out: Ki, activity towards PADs
[10] = tested on: animal models of MS; settings: cited from earlier work
[11] = read-out: PAD2 Ki ± std error, Table 5
[12] = read-out: PAD2 inhibition constant Ki ± Std Error, Table 1

Compound: CN(C)[C@@H]1C(O)=C(C(N)=O)C(=O)[C@@]2(O)C(O)=C3C(=O)c4c(O)ccc(Cl)c4[C@@](C)(O)[C@H]3C[C@@H]12 [chlortetracycline]
IC50 [4]: 100 µM

Compound: CC(C)NC(=O)[C@H](CCn1ccnc1)NC(=O)c1ccco1 [KP-286, (S)—N-(4-(1[H]-imidazol-1-yl)-1-(isopropylamino)-1-oxobutan-2-yl) furan-2-carboxamide]
Ki [5]: 964 ± 689 µM
Ki [6]: 554 ± 93 µM
IC50 [7]: 546 ± 136 µM
Ki [1]: 2500 ± 1780 µM
Ki [2, 11]: 554 ± 93 µM

Compound: COC(=O)[C@H](CN1CCNCC1)NC(=O)c1ccco1 [KP-225, (S)-Methyl 2-(furan-2-carboxamido)-3-(piperazin-1-yl)propanoate]
remaining activity at 100 µM [2]: 86.6 ± 3%
remaining activity at 1000 µM [2]: 70.8 ± 1.7%
remaining activity at 100 µM [3]: 78.7 ± 9.5%
remaining activity at 1000 µM [3]: 62.2 ± 2.7%

Compound: O=C(N[C@@H](CCO)C(=O)Nc1ccccc1)OCc1ccccc1 [KP-231]
remaining activity at 100 µM [2]: 44.4 ± 0.5%
remaining activity at 1000 µM [2]: 45.5 ± 1.1%
remaining activity at 100 µM [3]: 100 ± 4.6%
remaining activity at 1000 µM [3]: 82.3 ± 3.7%

Compound: O=C(Nc1ccccc1)[C@H](CC(=O)N1CCNCC1)NC(=O)N1CCOCC1 [KP-229]
remaining activity at 100 µM [2]: 54 ± 2.7%
remaining activity at 1000 µM [2]: 63.3 ± 2%
remaining activity at 100 µM [3]: 100 ± 5.5%
remaining activity at 1000 µM [3]: 100 ± 2.6%

Compound: O=C(N[C@@H](CN1CCNCC1)C(=O)NCc1ccccc1)c1ccco1 [KP-227, (S)—N-(1-(Benzylamino)-1-oxo-3-(piperazin-1-yl)propan-2-yl)furan-2-carboxamide]
remaining activity at 100 µM [2]: 63.7 ± 0.6%
remaining activity at 1000 µM [2]: 68.2 ± 2.3%
remaining activity at 100 µM [3]: 100 ± 1.3%
remaining activity at 1000 µM [3]: 82.2 ± 2.4%

Compound: O=C(N[C@@H](CC(=O)N1CCNCC1)C(=O)Nc1ccccc1)c1ccco1 [KP-230]
remaining activity at 100 µM [2]: 55.1 ± 0.5%
remaining activity at 1000 µM [2]: 33.5 ± 0.4%
remaining activity at 100 µM [3]: 96.9 ± 7.6%
remaining activity at 1000 µM [3]: 82.4 ± 1.7%

Compound: CC(C)NC(=O)[C@H](CCN1CCN(C)CC1)NC(=O)N1CCOCC1 [KP-287, (S)—N-(1-(Isopropylamino)-4-(4-methylpiperazin-1-yl)-1-oxobutan-2-yl)morpholine-4-carboxamide]
Ki [5]: > 10000 µM
Ki [6]: > 10000 µM
Ki [8]: > 10000 µM
IC50 [7]: > 2000 µM
Ki [9]: 200 to 500 µM
PAD1 Ki ± std error [1]: Some inhibition but IC50 not calculated - no Ki
Ki [2, 11]: 600 ± 1330 µM
PAD4 Ki ± std error [3]: No inhibition up to 10 mM

Compound: CC(C)NC(=O)[C@H](Cn1ccnc1)NC(=O)N1CCOCC1 [KP-292]
Ki [3]: ~14900 µM

Compound: CC(C)NC(=O)[C@H](CN1CCN(C)CC1)NC(=O)N1CCCCC1 [KP-290]
PAD4 Ki ± std error [3]: No inhibition up to 10 mM

Compound: COC(=O)[C@H](CN1CCNCC1)NC(=O)C1CCCCC1 [KP-224]
Ki [2, 12]: 21.3 ± 3.4 µM

Compound: N=C(N)CCl [Compound 2CA, 2-chloroacetamidine]
MS disease ([10]; four animal models of MS): attenuated MS disease
PAD activity in the brain ([10]; four animal models of MS): decreased PAD activity in the brain
amount of citrullinated protein ([10]; four animal models of MS): decreased the amount of citrullinated protein
disease after therapy cessation at 6 months ([10]; one murine model): fully progressive clinical disease re-emerged promptly
disease with early and prolonged administration ([10]; one murine model): essentially prevented the disease

Compound: O=C(N[C@@H](CCN1CCNCC1)C(=O)NCc1ccccc1)c1ccco1 [KP-228, (S)—N-(1-(Benzylamino)-1-oxo-4-(piperazin-1-yl)butan-2-yl)furan-2-carboxamide]
remaining activity at 100 µM [2]: 58.6 ± 3.6%
remaining activity at 1000 µM [2]: 31.8 ± 4.9%
remaining activity at 100 µM [3]: 96.4 ± 10.4%
remaining activity at 1000 µM [3]: 82.1 ± 7.2%

Compound: CC(C)NC(=O)[C@H](CN1CCN(C)CC1)NC(=O)N1CCOCC1 [KP-291]
PAD1 Ki ± std error [1]: No inhibition up to 10 mM
PAD2 Ki ± std error ([2]; Table 5): No inhibition up to 10 mM
PAD4 Ki ± std error [3]: No inhibition up to 10 mM

Compound: CC(C)NC(=O)[C@H](CCN1CCN(C)CC1)NC(=O)c1ccco1 [KP-289, (S)—N-(1-(Isopropylamino)-4-(4-methylpiperazin-1-yl)-1-oxobutan-2-yl)furan-2-carboxamide]
Ki [6]: 1840 ± 2420 µM
Selectivity ratio of inhibition, mPAD2 (PAD4) [6]: 0.3 (PAD4)
Ki [8]: 488 ± 47 µM
Selectivity ratio of inhibition, hPAD4 (PAD2) ([8]; hPAD4 versus PAD2): 3.7 (PAD2)
IC50 [7]: > 2000 µM
Ki [2, 11]: 1790 ± 2420 µM
Ki [3]: 488 ± 47 µM

Compound: CC(C)NC(=O)[C@H](CCn1cnc(CC#N)c1)NC(=O)c1ccco1 [KP-288, (S)—N-(4-(4-(Cyanomethyl)-1[H]-imidazol-1-yl)-1-(isopropylamino)-1-oxobutan-2-yl)furan-2-carboxamide]
inhibitor efficacy towards hPAD1 in comparison to other isozymes [5]: at least 3 fold
Ki [5]: 353 ± 23 µM
Selectivity ratio of inhibition, hPAD1 (PAD2) ([5]; hPAD1 versus PAD2, ratios greater than 2-fold suggest selectivity): 2.8
Selectivity ratio of inhibition, hPAD1 (PAD4) ([5]; hPAD1 versus PAD4): 1.6
Ki [6]: 1000 ± 876 µM
Selectivity ratio of inhibition, mPAD2 (PAD1) ([6]; mPAD2 versus PAD1): 0.4
Selectivity ratio of inhibition, mPAD2 (PAD4) [6]: 0.6
Ki [8]: 591 ± 77 µM
Selectivity ratio of inhibition, hPAD4 (PAD1) ([8]; hPAD4 versus PAD1): 0.6
IC50 [7]: > 2000 µM
Ki [1]: 914 ± 59 µM
Ki [2, 11]: 176 ± 62 µM
Ki [3]: 591 ± 77 µM

Compound: COC(=O)[C@H](CCN1CCNCC1)NC(=O)c1ccco1 [KP-226, (S)-Methyl 2-(furan-2-carboxamido)-4-(piperazin-1-yl)butanoate]
Ki [2, 11]: 286 ± 27 µM
Ki [2, 12]: 19.7 ± 2 µM

More lines, main results first:

Ki [1]: 785 ± 384 µM
Ki [2, 11]: 662 ± 210 µM
Ki [3]: 1240 ± 1390 µM
Compound: COC(=O)[C@H](Cn1ccnc1)NC(=O)c1ccco1 [KP-298]

Ki [5]: > 10000 µM
Ki [1]: 77700 ± 91500 µM
Compound: O=C(N[C@@H](CCn1ccnn1)C(=O)NCc1ccccc1)c1ccc(F)cc1 [KP-316, (S)—N-(1-(Benzylamino)-1-oxo-4-(1[H]-1,2,3-triazol-1-yl)butan-2-yl)-4-fluorobenzamide]
PAD2 Ki ± std error ([2]; Table 5): Some inhibition but IC50 can't be calculated - no Ki
PAD4 Ki ± std error [3]: Some inhibition but IC50 can't be calculated - no Ki

Ki [1]: 3430 ± 1940 µM
Ki [2, 11]: 1430 ± 186 µM
Ki [3]: 1450 ± 187 µM
Compound: CC(C)(C)OC(=O)N[C@H](CCN=[N+]=[N-])C(=O)NCc1ccccc1 [KP-310]

Ki [5]: > 10000 µM
Ki [6]: > 10000 µM
Ki [8]: > 10000 µM
Ki [9]: 200 to 500 µM
PAD1 Ki ± std error [1]: No inhibition up to 10 mM
PAD2 Ki ± std error ([2]; Table 5): No inhibition up to 10 mM
PAD4 Ki ± std error [3]: No inhibition up to 10 mM
Compound: O=C(N[C@@H](CCn1ccnc1)C(=O)NCc1ccccc1)c1ccco1 [KP-301, (S)—N-(1-(Benzylamino)-4-(1 [H]-imidazol-1-yl)-1-oxobutan-2-yl) furan-2-carboxamide]

PAD1 Ki ± std error [1]: No inhibition up to 10 mM
Ki [2, 11]: 739 ± 339 µM
Ki [3]: 1070 ± 427 µM
Compound: O=C(N[C@@H](Cn1ccnc1)C(=O)OCc1ccccc1)c1ccco1 [KP-300]

Ki [6]: > 10000 µM
Ki [8]: > 10000 µM
PAD2 Ki ± std error ([2]; Table 5): No inhibition up to 10 mM
PAD4 Ki ± std error [3]: No inhibition up to 10 mM
Compound: CC(C)NC(=O)[C@H](CCN1CCN(C)CC1)NC(=O)C1CCCCC1 [KP-295, (S)—N-(1-(Isopropylamino)-4-(4-methylpiperazin-1-yl)-1-oxobutan-2yl) cyclohexanecarboxamide]

PAD1 Ki ± std error [1]: No inhibition up to 10 mM
PAD2 Ki ± std error ([2]; Table 5): No inhibition up to 10 mM
PAD4 Ki ± std error [3]: No inhibition up to 10 mM
Compound: CC(C)(C)OC(=O)N[C@@H](CN=[N+]=[N-])C(=O)NCc1ccccc1 [KP-306]

Ki [1]: 147 ± 52 µM
Ki [2, 11]: 58 ± 5 µM
Compound: Cn1cccc1C(=O)N[C@@H](Cn1ccnc1)C(=O)NCc1ccccc1 [KP-305]

Ki [2, 11]: 5300 ± 7830 µM
PAD4 Ki ± std error [3]: No inhibition up to 10 mM
Compound: O=C(NCc1ccccc1)[C@H](Cn1ccnc1)NC(=O)N1CCCCC1 [KP-304]

PAD1 Ki ± std error [1]: No inhibition up to 10 mM
PAD2 Ki ± std error ([2]; Table 5): No inhibition up to 10 mM
PAD4 Ki ± std error [3]: No inhibition up to 10 mM
Compound: CC(C)(C)OC(=O)N[C@H](CCO)C(=O)NCc1ccccc1 [KP-311]
